Results as given in patent US4596890A, “Benzoylureas, and their production and use” (priority 1983, dated 1986).
Values after ≈ are worked out from the molar mass of the structure shown. Where two headings read alike, the source gives them in different places.

Columns and labels:
Assay type in all cases: in vivo
[1] = test system: tobacco cutworm (Spodoptera litura); assay: Test Example 2: insecticidal test on tobacco cutworm fourth larvae, artificial diet; conditions: 144 h
Description: (§1) Anyone of Compound Nos. 1 to 12 (10 parts), polyoxyethylene styrylphenyl ether (14 parts), calcium dodecylbenzenesulfonate (6 parts), xylene (35 parts) and dimethylformamide (35 parts) are mixed well to make an emulsifiable concentrate preparation.
An emulsifiable concentrate preparation formulated as in Formulation Example 2 was diluted with water to make a designed dilution of the test compound. An artificial diet (13 g) for tobacco cutworm (Spodoptera litura) was impregnated with said dilution (2 ml) and placed into a polyethylene-made cup of 11 cm in diameter. Fourth larvae (10 insects) of tobacco cutworm were released therein. Six days thereafter, observation was made to determine the number of death, and the LC50 value (i.e. lethal concentration to 50% death) was calculated therefrom (two replications).

[2] = test system: common mosquito (Culex pipiens pallens); assay: Test Example 1: emergence of common mosquito from last instar larvae; conditions: 3.5 ppm in water; twenty last instar larvae; feeding up to emergence; two replications
Description: as §1
An emulsifiable concentrate preparation formulated as in Formulation Example 2 was diluted with water to make a dilution containing the test compound in a concentration of 3.5 ppm. The dilution (100 ml) was charged in a plastic cup of 180 ml volume, and twenty last instar larvae of common mosquito (Culex pipiens pallens) were released therein. Feeding was continued up to emergence, and the rate of emergence was observed (two replications).

[3] = test system: housefly (Musca domestica); assay: Test Example 4: emergence of housefly from nits reared on treated artificial culture; conditions: 10 ppm dilution (10,000 fold, 28 ml) in artificial culture; fifty nits, cultivated until pupation
Description: as §1
Powdered animal feed (2 g) was thoroughly mixed with bran (14 g). An emulsifiable concentrate preparation formulated as in Formulation Example 2 was diluted with water to make a 10,000 fold dilution (corresponding to 10 ppm; 28 ml) and added to the above mixture. The resultant mixture was stirred well to make an artificial culture for housefly. Fifty nits of housefly (Musca domestica) were cultivated therein until their pupation. The obtained pupae were placed into a plastic cup, and the rate of emergence was observed.

[4] = test system: rice stem borer (Chilo suppressalis); assay: Test Example 3: insecticidal test on rice stem borer ten-day old larvae, artificial diet; conditions: 192 h, eight days, two replications
Description: as §1
An emulsifiable concentrate preparation formulated as in Formulation Example 2 was diluted with water to make a designed dilution of the test compound. Five grams of artificial diet placed into a polyethylene-made cup of 5.5 cm in diameter was impregnated with said dilution (1 ml). Ten-day old larvae (10 insects) of rice stem borer (Chilo suppressalis) were released therein. Eight days thereafter, observation was made to determine the number of death, and the LC50 value was calculated therefrom (two replications).

[5] = lethal concentration to 50% death, fourth larvae, artificial diet, six days, two replications, read-out: LC50

Row | Compound | LC50 [1] | LC50 [1, 5] | Rate of emergence [2] | Rate of emergence [3] | LC50 [4]
1 | O=C(NC(=O)c1c(F)cccc1F)Nc1ccc(Cl)cc1 [A, Diflubenzuron, reference compound] | 4.4 µg/mL (≈ 14.2 µM) | – | – | – | –
2 | CNC(=O)ON=C(C)SC [B, Methomyl, reference compound] | 8 µg/mL (≈ 49.3 µM) | – | – | – | –
3 | O=C(NC(=O)c1c(F)cccc1F)Nc1ccc(Oc2cc(Cl)cc(Cl)c2)cc1 [C, 3-(2,6-difluorobenzoyl)-1-[4-(3,5-dichlorophenoxy)phenyl]urea, reference compound] | – | 6.5 µg/mL (≈ 14.9 µM) | – | – | –
4 | Cc1cc(NC(=O)NC(=O)c2c(F)cccc2F)cc(C)c1Oc1cc(F)cc(F)c1 [Compound 1, N-2,6-difluorobenzoyl-N'-4-(3,5-difluorophenoxy)-3,5-dimethylphenylurea] | – | 0.5 µg/mL (≈ 1.16 µM) | 0% | 2% | –
5 | O=C(NC(=O)c1c(F)cccc1F)Nc1cc(Cl)c(Oc2cc(F)cc(F)c2)c(Cl)c1 [Compound 2, N-2,6-difluorobenzoyl-N'-4-(3,5-difluorophenoxy)-3,5-dichlorophenylurea] | – | 2.5 µg/mL (≈ 5.28 µM) | 0% | 0% | 12 µg/mL (≈ 25.4 µM)
6 | O=C(NC(=O)c1c(F)cccc1F)Nc1cc(Cl)c(Oc2c(F)c(F)c(F)c(F)c2F)c(Cl)c1 [Compound 3] | – | 2.3 µg/mL (≈ 4.36 µM) | 0% | 0% | –
7 | Cc1cc(NC(=O)NC(=O)c2ccccc2Cl)cc(C)c1Oc1cc(F)cc(F)c1 [Compound 4] | – | 1.5 µg/mL (≈ 3.48 µM) | 0% | – | 10 µg/mL (≈ 23.2 µM)
8 | O=C(NC(=O)c1ccccc1Cl)Nc1cc(Cl)c(Oc2cc(F)cc(F)c2)c(Cl)c1 [Compound 5] | – | – | 0% | – | –
9 | O=C(NC(=O)c1ccccc1Cl)Nc1cc(Cl)c(Oc2c(F)c(F)c(F)c(F)c2F)c(Cl)c1 [Compound 6] | – | 2.7 µg/mL (≈ 5.14 µM) | 0% | 0% | –
10 | O=C(NC(=O)c1ccccc1Cl)Nc1cc(Cl)c(Oc2c(Cl)c(Cl)c(Cl)c(Cl)c2Cl)c(Cl)c1 [Compound 7] | – | – | 0% | – | –
11 | O=C(NC(=O)c1c(F)cccc1F)Nc1cc(Cl)c(Oc2c(Cl)c(Cl)c(Cl)c(Cl)c2Cl)c(Cl)c1 [Compound 8] | – | – | 0% | – | 15 µg/mL (≈ 24.6 µM)
12 | Cc1cc(NC(=O)NC(=O)c2c(F)cccc2F)cc(C)c1Oc1c(F)c(F)c(F)c(F)c1F [Compound 9] | – | 0.64 µg/mL (≈ 1.32 µM) | 0% | – | –
13 | Cc1cc(NC(=O)NC(=O)c2ccccc2Cl)cc(C)c1Oc1c(F)c(F)c(F)c(F)c1F [Compound 10] | – | 1.2 µg/mL (≈ 2.48 µM) | 0% | – | –
14 | Cc1cc(NC(=O)NC(=O)c2c(F)cccc2Cl)cc(C)c1Oc1cc(F)cc(F)c1 [Compound 11] | – | 1.6 µg/mL (≈ 3.56 µM) | 0% | – | –
15 | Cc1cc(NC(=O)NC(=O)c2c(F)cccc2Cl)cc(C)c1Oc1c(F)c(F)c(F)c(F)c1F [Compound 12] | – | – | 0% | – | –
